Our source for the viscosity, mass density and refractive index values is the NIST ThermoML archive (doi:10.1021/je300938w).

Numbers after ± are expanded uncertainties.

The conditions of data set [1]: 101.33 kPa, Liquid; for viscosity: Concentric cylinders viscometry; for mass density: Vibrating tube method.
Data set [2] can be described thus: refractive index (Na D-line) (dimensionless). As to conditions: 101.33 kPa, Liquid, Standard Abbe refractometry.

In the case of `CC(O)CN(CC(C)O)CC(C)O` (centres undefined) [triisopropanolamine], in data set [1] (323.15 K), the viscosity turned out to be 132.3 ± 5.5 mPa·s and the mass density came out at 990.616 ± 6.8 kg/m3. Moreover, in data set [2] (323.15 K), the refractive index worked out at 1.45233 ± 0.0012.
For `CC(O)CNCC(C)O` (centres undefined) [N-(2-hydroxypropyl)-2-hydroxy-1-propanamine], the results for the viscosity in data set [1] (313.15 K) and in data set [1] (323.15 K) were 308.54 ± 11 mPa·s and 123.21 ± 4.4 mPa·s, respectively. For the same molecule, the values for the mass density in data set [1] (313.15 K) and in data set [1] (323.15 K) were 992.46 ± 1.1 kg/m3 and 984.835 ± 1.1 kg/m3, respectively. Also, the refractive index in data set [2] (313.15 K) is reported as 1.45517 ± 0.00068; in data set [2] (323.15 K), 1.45139 ± 0.00068.
In the case of `CC(O)CN` (centres undefined) [1-amino-2-propanol], in data set [1] (298.15 K), the viscosity is reported as 23.26 ± 0.41 mPa·s and the mass density is recorded as 956.644 ± 1 kg/m3. Also, the refractive index in data set [2] (298.15 K) is listed as 1.4459 ± 0.00082.
Regarding `OCCNCCO` [diethanolamine], in data set [1] (298.15 K), the viscosity was determined as 566.57 ± 46 mPa·s and the mass density is on record as 1093.22 ± 0.17 kg/m3. In addition, the refractive index in data set [2] (298.15 K) was found to be 1.4764 ± 0.00073.
As for `O` [water], the viscosity in data set [1] (293.15 K) was determined as 1.019 ± 0.01 mPa·s; in data set [1] (298.15 K), 0.9123 ± 0.0097 mPa·s. Moreover, the results for the refractive index in data set [2] (293.15 K) and in data set [2] (298.15 K) were 1.33304 ± 0.00042 and 1.33249 ± 0.00042, respectively.

In general, viscosity refers to the resistance of a fluid to flow. The mass density is mass per unit of volume. By refractive index is commonly meant a measure of how strongly the sample bends light.
